Reference: patent US20060069132A1, “Azolecarboxamide herbicides” (priority 2004, published 2006)

Columns and labels:
ducksalad [1] = assay: Test B flooded paddy test; assay type: in vivo, Heteranthera limosa; details: 1000 g ai/ha, visual rating, scale 0 to 100 (0 no effect, 100 complete control), 13 to 15 days
How it was run: (§1)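 Each value is a visual 0–100 response rating taken against controls 13 to 15 days after treatment in the greenhouse. Plants received formulated chemical postemergence at the 1- to 4-leaf stage or, in flooded paddy, at the 2-leaf stage.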

cocklebur = assay: Test B pre-/postemergence herbicide test; assay type: in vivo, Xanthium strumarium; details: for Plant response rating, Cocklebur: preemergence; for Cocklebur plant response rating: postemergence, visual rating, scale 0 (no effect) to 100 (complete control)
How it was run: (§2)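 Evaluation is visual, comparing treated with control plants on a scale where 0 means no effect and 100 means full control. Treatments were preemergence, or postemergence on seedlings 2–18 cm tall, and held 13–15 days in the greenhouse.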

blackgrass = assay: Test B postemergence herbicide test; assay type: in vivo, Alopecurus myosuroides; details: postemergence, visual rating, scale 0 (no effect) to 100 (complete control)
How it was run: as §1

[2] = system: small flower umbrella sedge; assay: Test B flooded paddy test; assay type: in vivo, Cyperus difformis; details: 1000 g ai/ha, visual rating, scale 0 to 100 (0 no effect, 100 complete control), 13 to 15 days
How it was run: as §1

velvetleaf = assay: Test B pre-/postemergence herbicide test; assay type: in vivo, Abutilon theophrasti; details: for Plant response rating, Velvetleaf: preemergence; for Velvetleaf plant response rating: postemergence, visual rating, scale 0 (no effect) to 100 (complete control)
How it was run: (§3)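 Visual rating, 0 (no effect) to 100 (complete control), versus untreated controls after 13–15 d in greenhouse. Pre- and postemergence applications (postemergence plants 2–18 cm, 1–4 leaves); flooded paddy arm at 2-leaf stage. Compounds in non-phytotoxic solvent plus surfactant.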

wild oat = assay: Test B postemergence herbicide test; assay type: in vivo, Avena fatua; details: postemergence, visual rating, scale 0 (no effect) to 100 (complete control)
How it was run: (§4)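 Postemergence plants were sprayed with formulated test chemicals at 2 to 18 cm height (1- to 4-leaf stage); paddy species were grown to the 2-leaf stage. After 13 to 15 days in a greenhouse, injury was rated visually against untreated controls on a 0–100 scale (0 = no effect, 100 = complete control).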

morningglory = assay: Test B pre-/postemergence herbicide test; assay type: in vivo, Ipomoea coccinea; details: for Plant response rating, Morningglory: preemergence; for Morningglory plant response rating: postemergence, visual rating, scale 0 (no effect) to 100 (complete control)
How it was run: as §2

barnyardgrass [3] = assay: Test B pre-/postemergence herbicide test; assay type: in vivo, Echinochloa crus-galli; details: for Plant response rating, Barnyardgrass: preemergence; for Barnyardgrass plant response rating: postemergence, visual rating, scale 0 (no effect) to 100 (complete control)
How it was run: as §2

ducksalad [4] = assay: Test C flooded paddy test; assay type: in vivo, Heteranthera limosa
barnyardgrass [5] = assay: Test C flooded paddy test; assay type: in vivo, Echinochloa crus-galli
How it was run: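 Postemergence sprays applied to plants 2 to 18 cm tall (1- to 4-leaf stage); paddy species grown to 2-leaf stage under flooding. After 12 to 14 days in greenhouse, visual rating versus untreated controls on 0–100 scale (0 no effect, 100 complete control).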

rice [6] = assay: Test C flooded paddy test; assay type: in vivo, Oryza sativa
How it was run: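 Plants were grown to the 1- to 4-leaf stage (2–18 cm) and then treated postemergence, or grown to the 2-leaf stage for the flooded paddy test. They were held in a greenhouse for 12 to 14 days and then scored by eye against controls, where 0 is no effect and 100 is complete control.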

corn = assay: Test B pre-/postemergence herbicide test; assay type: in vivo, Zea mays; details: for Plant response rating, Corn: preemergence; for Corn plant response rating: postemergence, visual rating, scale 0 (no effect) to 100 (complete control)
How it was run: as §3

wheat = assay: Test B postemergence herbicide test; assay type: in vivo, Triticum aestivum; set-up: key to Wheat plant response rating: 0 = no effect, 100 = complete control; details: postemergence, 500 g ai/ha; visual rating, scale 0 (no effect) to 100 (complete control)
How it was run: as §4

Surinam grass = assay: Test B pre-/postemergence herbicide test; assay type: in vivo, Urochloa decumbens; details: for Plant response rating, Surinam Grass: preemergence; for Surinam Grass plant response rating: postemergence, visual rating, scale 0 (no effect) to 100 (complete control)
How it was run: as §3

lambsquarters = assay: Test B pre-/postemergence herbicide test; assay type: in vivo, Chenopodium album; details: for Plant response rating, Lambsquarters: preemergence; for Lambsquarters plant response rating: postemergence, visual rating, scale 0 (no effect) to 100 (complete control)
How it was run: as §3

pigweed = assay: Test B pre-/postemergence herbicide test; assay type: in vivo, Amaranthus retroflexus; details: for Plant response rating, Pigweed: preemergence; for Pigweed plant response rating: postemergence, visual rating, scale 0 (no effect) to 100 (complete control)
How it was run: as §3

rice [7] = assay: Test B flooded paddy test; assay type: in vivo, Oryza sativa; details: 1000 g ai/ha, visual rating, scale 0 to 100 (0 no effect, 100 complete control), 13 to 15 days
How it was run: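 Read-out: visual comparison with controls, scored 0 to 100, where 100 means complete control and 0 no effect. Formulated chemicals were applied postemergence to plants 2–18 cm tall (1- to 4-leaf), or to flooded-paddy plants at the 2-leaf stage, then held 13 to 15 days under glass.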

rice [8] = assay: Test B pre-/postemergence herbicide test; assay type: in vivo, Oryza sativa; details: preemergence
How it was run: as §3

barnyardgrass [9] = assay: Test B flooded paddy test; assay type: in vivo, Echinochloa crus-galli; details: 1000 g ai/ha, visual rating, scale 0 to 100 (0 no effect, 100 complete control), 13 to 15 days
How it was run: as §1

giant foxtail = assay: Test B pre-/postemergence herbicide test; assay type: in vivo, Setaria faberi; details: for Plant response rating, Foxtail, Giant: preemergence; for Foxtail, Giant plant response rating: postemergence, visual rating, scale 0 (no effect) to 100 (complete control)
How it was run: as §3

[10] = system: smallflower umbrella sedge; assay: Test C flooded paddy test; assay type: in vivo, Cyperus difformis
large crabgrass = assay: Test B pre-/postemergence herbicide test; assay type: in vivo, Digitaria sanguinalis; details: for Plant response rating, Crabgrass, Large: preemergence; for Crabgrass, Large plant response rating: postemergence, visual rating, scale 0 (no effect) to 100 (complete control)
How it was run: as §3

[11] = 500 g ai/ha, visual rating 0-100, 0 no effect, 100 complete control
[12] = 125 g ai/ha, 0 to 100 scale, 0 is no effect, 100 is complete control
[13] = 62 g ai/ha, scale 0 to 100 (0 no effect, 100 complete control)
[14] = 125 g ai/ha, scale 0 to 100 (0 no effect, 100 complete control)
[15] = 250 g ai/ha, scale of 0 to 100, 0 is no effect, 100 is complete control
[16] = 500 g ai/ha, visual rating after 12 to 14 days, scale 0 to 100 (0 no effect, 100 complete control)

CCn1nc(C(C)(C)C)cc1C(=O)Nc1cccc(C(=O)N(C)CC#N)n1 [Compound 158]
Ducksalad plant response rating (ducksalad [1]): 90
Plant response rating, Cocklebur (cocklebur; [11]): 40
Cocklebur plant response rating (cocklebur; 125 g ai/ha): 20
Cocklebur plant response rating (cocklebur; 500 g ai/ha): 70
Plant response rating, Cocklebur (cocklebur; [12]): 40
Blackgrass plant response rating (blackgrass; 125 g ai/ha): 20
Blackgrass plant response rating (blackgrass; 500 g ai/ha): 30
Sedge, Umbrella plant response rating [2]: 80
Plant response rating, Velvetleaf (velvetleaf; [11]): 80
Velvetleaf plant response rating (velvetleaf; 125 g ai/ha): 50
Velvetleaf plant response rating (velvetleaf; 500 g ai/ha): 50
Plant response rating, Velvetleaf (velvetleaf; [12]): 50
Oat, Wild plant response rating (wild oat; 125 g ai/ha): 30
Oat, Wild plant response rating (wild oat; 500 g ai/ha): 40
Plant response rating, Morningglory (morningglory; [11]): 50
Morningglory plant response rating (morningglory; 125 g ai/ha): 0
Morningglory plant response rating (morningglory; 500 g ai/ha): 50
Plant response rating, Morningglory (morningglory; [12]): 50
Plant response rating, Barnyardgrass (barnyardgrass [3]; [11]): 100
Barnyardgrass plant response rating (barnyardgrass [3]; 125 g ai/ha): 0
Barnyardgrass plant response rating (barnyardgrass [3]; 500 g ai/ha): 0
Plant response rating, Barnyardgrass (barnyardgrass [3]; [12]): 70
Ducksalad plant response rating (ducksalad [4]; [13]): 0
Ducksalad plant response rating (ducksalad [4]; [14]): 0
Ducksalad plant response rating (ducksalad [4]; [15]): 20
Plant response rating, Ducksalad (ducksalad [4]; [16]): 50
Barnyardgrass plant response rating (barnyardgrass [5]; [13]): 0
Barnyardgrass plant response rating (barnyardgrass [5]; 125 g ai/ha, scale of 0 to 100, 0 is no effect, 100 is complete control): 0
Barnyardgrass plant response rating (barnyardgrass [5]; [15]): 15
Plant response rating, Barnyardgrass (barnyardgrass [5]; [16]): 35
Rice plant response rating (rice [6]; [13]): 0
Rice plant response rating (rice [6]; [14]): 0
Rice plant response rating (rice [6]; [15]): 35
Plant response rating, Rice (rice [6]; [16]): 60
Plant response rating, Corn (corn; [11]): 60
Corn plant response rating (corn; 125 g ai/ha): 0
Corn plant response rating (corn; 500 g ai/ha): 10
Plant response rating, Corn (corn; [12]): 0
Wheat plant response rating (wheat): 10
Plant response rating, Surinam Grass (Surinam grass; [11]): 90
Surinam Grass plant response rating (Surinam grass; 125 g ai/ha): 0
Surinam Grass plant response rating (Surinam grass; 500 g ai/ha): 0
Plant response rating, Surinam Grass (Surinam grass; [12]): 30
Plant response rating, Lambsquarters (lambsquarters; [11]): 100
Lambsquarters plant response rating (lambsquarters; 125 g ai/ha): 80
Lambsquarters plant response rating (lambsquarters; 500 g ai/ha): 80
Plant response rating, Lambsquarters (lambsquarters; [12]): 70
Plant response rating, Pigweed (pigweed; [11]): 100
Pigweed plant response rating (pigweed; 125 g ai/ha): 50
Pigweed plant response rating (pigweed; 500 g ai/ha): 70
Plant response rating, Pigweed (pigweed; [12]): 100
Rice plant response rating (rice [7]): 60
Plant response rating, Rice (rice [8]; [11]): 90
Plant response rating, Rice (rice [8]; [12]): 80
Barnyardgrass plant response rating (barnyardgrass [9]): 70
Plant response rating, Foxtail, Giant (giant foxtail; [11]): 100
Foxtail, Giant plant response rating (giant foxtail; 125 g ai/ha): 0
Foxtail, Giant plant response rating (giant foxtail; 500 g ai/ha): 30
Plant response rating, Foxtail, Giant (giant foxtail; [12]): 50
Sedge, Umbrella plant response rating [10, 13]: 15
Sedge, Umbrella plant response rating [10, 14]: 45
Sedge, Umbrella plant response rating [10, 15]: 70
Plant response rating, Sedge, Umbrella [10, 16]: 80
Plant response rating, Crabgrass, Large (large crabgrass; [11]): 100
Crabgrass, Large plant response rating (large crabgrass; 125 g ai/ha): 30
Crabgrass, Large plant response rating (large crabgrass; 500 g ai/ha): 30
Plant response rating, Crabgrass, Large (large crabgrass; [12]): 80
